Test results reported in patent US10732108B2, “Fluorogenic water soluble hydrazine sensors” (priority 2017, dated 2020).

Experiment: Hydrazine diffusion into vesicles assay (fluorimetric kinetic hydrazine transmembrane diffusion, SUVs encapsulating compound 2)
Conditions: for hydrazine diffusion across a phospholipid membrane, t ½: FIG. 9, membranes of the phosphatidylcholine lipid
Protocol: (iii) Hydrazine Diffusion into Vesicles Assay
Example 5: Hydrazine Diffusion Assay Procedure
1.0 mg of phosphatidylcholine lipid in chloroform solution was dispensed into a 20 mL scintillation vial, dried under a stream of Ar, and put under house vacuum in a desiccator overnight. The vial was then removed from the desiccator, purged of air with a stream of Ar, closed, and sealed with Parafilm.
6.0 g of monobasic sodium phosphate was dissolved in 1 L MilliQ water to make a 50 mM solution. The pH of the solution was raised to 7.40 by addition of 5N NaOH (typically 9 mL). Depending on the amount of NaOH added, NaCl was added (typically 10 g) to form a 500 mosM buffer.
Loosely capped Falcon tubes containing 45 ml of buffer or MilliQ water were placed in a desiccator and put under house vacuum overnight. The desiccator was then filled with Ar by first capping the inlet with a rubber septum, then piercing the septum with two Ar-filled balloons with attached needles, then simultaneously closing the desiccator valve to vacuum and opening the desiccator valve to the inlet. The desiccator top was then removed and the Falcon tubes quickly closed and sealed with Parafilm.
425-430 mg of hydrazine hydrochloride was weighed and dispensed into a 25 ml reagent bottle pre-filled with Ar; the bottle was then purged of air with a stream of Ar and closed. 25 ml degassed MilliQ water was added to the bottle, along with 300 μl 5N NaOH, under a stream of Ar. The bottle was closed and shaken vigorously. The pH was then adjusted to 7.40±0.02 with 5N NaOH, purging of air with Ar immediately after each pH measurement with a glass electrode. The bottle was purged of air with a stream of Ar, closed, and sealed with Parafilm.
A suspension of Sepharose® CL-4B in 10-30% ethanol (Sigma) was added to an 8.5-cm size-exclusion column. Methanol was washed out of the column by flushing with at least 5 column volumes of 50 mM phosphate buffer (described above, section B). Then the column was capped with a rubber septum, the septum was pierced with an Ar-filled balloon with attached needle, and the column was run until the meniscus descended to the top of the resin. Then, under a stream of Ar, the head space was filled with degassed buffer (described above, section C) and the Falcon tube containing the degassed buffer was purged of any incidental air with a stream of Ar, then closed. […]
The vesicles were loaded onto the column under a stream of Ar and then degassed phosphate buffer was added to the column under a stream of Ar; the column was subsequently run under Ar. […] Vesicles were not visible by eye or upon exposure to a UV lamp; vesicles were detected by directing the beam from a 5 mW green laser pointer horizontally through the cuvette; upon elution of the vesicles, bright scattering was visible.

| Structure (SMILES) | hydrazine diffusion across a phospholipid membrane, t ½ [h] | N2H4 Diff. t1/2 (min) pH = 6.30 (pH = 6.30, SUVs of the lipid) [min] | N2H4 Diff. t1/2 (min) pH = 7.40 (pH = 7.40, SUVs of the lipid) [min] |
| --- | --- | --- | --- |
| CCCCCCCC/C=C\CCCCCCCC(=O)OC[C@H](COP(=O)([O-])OCC[N+](C)(C)C)OC(=O)CCCCCCC/C=C\CCCCCCCC [18:1 PC (DOPC)] | 0.907 ± 0.0933 | – | – |
| CCCCCCCC/C=C\CCCCCCCCCCCC(=O)OC[C@H](COP(=O)([O-])OCC[N+](C)(C)C)OC(=O)CCCCCCCCCCC/C=C\CCCCCCCC [di22:1 PC (DEPC)] | 1.65 ± 0.1 | 583 ± 25 | 98.9 ± 6.0 |
